Laboratory results as given in patent US8623860B2, “Azetidine derivatives, pharmaceutical compositions and uses thereof” (Boehringer Ingelheim International GmbH, priority 2011, dated 2014).

Target: human ACC2 (Homo sapiens (Human), UniProt O00763)
Assay: ACC2 assay, spectrophotometric 384 well assay (NADH-linked, coupled lactate dehydrogenase/pyruvate kinase reaction)
Type: biochemical
Conditions: hACC2 construct lacking the 128 N-terminal amino acids; 25° C., 340 nm, 15 minutes
Description: Spectrophotometric 384 Well Assay
Malonyl CoA formation by acetyl CoA carboxylases is stoichometrically linked to the consumption of ATP. ACC2 activity is measured in a NADH-linked kinetic method measuring ADP generated during the ACC reaction using a coupled lactate dehydrogenase/pyruvate kinase reaction.
For biological testing, a human ACC2 construct which lacks the 128 amino acids at the N-terminus for increased solubility (nt 385-6966 in Genbank entry AJ575592) is cloned. The protein is then expressed in insect cells using a baculoviral expression system. Protein purification is performed by anion exchange.
All compounds are dissolved in dimethyl sulfoxide (DMSO) to a concentration of 10 mM.
Assay reactions are then carried out in 384-well plates, with hACC2 in an appropriate dilution and at final assay concentrations (f.c.) of 100 mM Tris (pH 7.5), 10 mM trisodium citrate, 25 mM KHCC3, 10 mM MgCl2, 0.5 mg/ml BSA, 3.75 mM reduced L-glutathione, 15 U/ml lactate dehydrogenase, 0.5 mM phosphoenolpyruvate, 15 U/ml pyruvate kinase, compounds at different concentrations at final DMSO concentrations of 1%.
The enzymatic reaction is then started by addition of a mixture of NADH, acetyl Coenzyme A (both 200 μM f.c.) and ATP (500 uM f.c.). The decrease of the optical density (slope S) is then determined at 25° C. at a wavelength of 340 nm over 15 minutes in a spectrophotometric reader.
Each assay microtiter plate contains wells with vehicle instead of compound as controls for the non-inhibited enzyme (100% CTL; ‘HIGH’) and wells without acetyl-CoA as controls for non-specific NADH degradation (0% CTL; ‘LOW’).
The slope S is used for calculation of % CTL=(S(compound)−S(‘LOW’))/(S(‘HIGH’)−S(‘LOW’))*100. Compounds will give values between 100% CTL (no inhibition) and 0% CTL (complete inhibition).
For IC50 value determination, the sample slope in the presence of the test compound after subtraction of the low controls (S(compound)−S(‘LOW’)) are used.
An IC50 value is derived from the compound slopes at different dosages after subtraction of the low controls (S(compound)−S(‘LOW’)) by non-linear regression curve fitting (equation y=(A+((B−A)/(1+((C/x)^D))))).
In the following table the activity expressed as IC50 (μM) of compounds according to the invention is presented wherein the IC50 values are determined in the ACC2 assay as described hereinbefore. The term “Ex.” refers to the example numbers according to the following experimental section.

Chain of human ACC2 (O00763 129-2458): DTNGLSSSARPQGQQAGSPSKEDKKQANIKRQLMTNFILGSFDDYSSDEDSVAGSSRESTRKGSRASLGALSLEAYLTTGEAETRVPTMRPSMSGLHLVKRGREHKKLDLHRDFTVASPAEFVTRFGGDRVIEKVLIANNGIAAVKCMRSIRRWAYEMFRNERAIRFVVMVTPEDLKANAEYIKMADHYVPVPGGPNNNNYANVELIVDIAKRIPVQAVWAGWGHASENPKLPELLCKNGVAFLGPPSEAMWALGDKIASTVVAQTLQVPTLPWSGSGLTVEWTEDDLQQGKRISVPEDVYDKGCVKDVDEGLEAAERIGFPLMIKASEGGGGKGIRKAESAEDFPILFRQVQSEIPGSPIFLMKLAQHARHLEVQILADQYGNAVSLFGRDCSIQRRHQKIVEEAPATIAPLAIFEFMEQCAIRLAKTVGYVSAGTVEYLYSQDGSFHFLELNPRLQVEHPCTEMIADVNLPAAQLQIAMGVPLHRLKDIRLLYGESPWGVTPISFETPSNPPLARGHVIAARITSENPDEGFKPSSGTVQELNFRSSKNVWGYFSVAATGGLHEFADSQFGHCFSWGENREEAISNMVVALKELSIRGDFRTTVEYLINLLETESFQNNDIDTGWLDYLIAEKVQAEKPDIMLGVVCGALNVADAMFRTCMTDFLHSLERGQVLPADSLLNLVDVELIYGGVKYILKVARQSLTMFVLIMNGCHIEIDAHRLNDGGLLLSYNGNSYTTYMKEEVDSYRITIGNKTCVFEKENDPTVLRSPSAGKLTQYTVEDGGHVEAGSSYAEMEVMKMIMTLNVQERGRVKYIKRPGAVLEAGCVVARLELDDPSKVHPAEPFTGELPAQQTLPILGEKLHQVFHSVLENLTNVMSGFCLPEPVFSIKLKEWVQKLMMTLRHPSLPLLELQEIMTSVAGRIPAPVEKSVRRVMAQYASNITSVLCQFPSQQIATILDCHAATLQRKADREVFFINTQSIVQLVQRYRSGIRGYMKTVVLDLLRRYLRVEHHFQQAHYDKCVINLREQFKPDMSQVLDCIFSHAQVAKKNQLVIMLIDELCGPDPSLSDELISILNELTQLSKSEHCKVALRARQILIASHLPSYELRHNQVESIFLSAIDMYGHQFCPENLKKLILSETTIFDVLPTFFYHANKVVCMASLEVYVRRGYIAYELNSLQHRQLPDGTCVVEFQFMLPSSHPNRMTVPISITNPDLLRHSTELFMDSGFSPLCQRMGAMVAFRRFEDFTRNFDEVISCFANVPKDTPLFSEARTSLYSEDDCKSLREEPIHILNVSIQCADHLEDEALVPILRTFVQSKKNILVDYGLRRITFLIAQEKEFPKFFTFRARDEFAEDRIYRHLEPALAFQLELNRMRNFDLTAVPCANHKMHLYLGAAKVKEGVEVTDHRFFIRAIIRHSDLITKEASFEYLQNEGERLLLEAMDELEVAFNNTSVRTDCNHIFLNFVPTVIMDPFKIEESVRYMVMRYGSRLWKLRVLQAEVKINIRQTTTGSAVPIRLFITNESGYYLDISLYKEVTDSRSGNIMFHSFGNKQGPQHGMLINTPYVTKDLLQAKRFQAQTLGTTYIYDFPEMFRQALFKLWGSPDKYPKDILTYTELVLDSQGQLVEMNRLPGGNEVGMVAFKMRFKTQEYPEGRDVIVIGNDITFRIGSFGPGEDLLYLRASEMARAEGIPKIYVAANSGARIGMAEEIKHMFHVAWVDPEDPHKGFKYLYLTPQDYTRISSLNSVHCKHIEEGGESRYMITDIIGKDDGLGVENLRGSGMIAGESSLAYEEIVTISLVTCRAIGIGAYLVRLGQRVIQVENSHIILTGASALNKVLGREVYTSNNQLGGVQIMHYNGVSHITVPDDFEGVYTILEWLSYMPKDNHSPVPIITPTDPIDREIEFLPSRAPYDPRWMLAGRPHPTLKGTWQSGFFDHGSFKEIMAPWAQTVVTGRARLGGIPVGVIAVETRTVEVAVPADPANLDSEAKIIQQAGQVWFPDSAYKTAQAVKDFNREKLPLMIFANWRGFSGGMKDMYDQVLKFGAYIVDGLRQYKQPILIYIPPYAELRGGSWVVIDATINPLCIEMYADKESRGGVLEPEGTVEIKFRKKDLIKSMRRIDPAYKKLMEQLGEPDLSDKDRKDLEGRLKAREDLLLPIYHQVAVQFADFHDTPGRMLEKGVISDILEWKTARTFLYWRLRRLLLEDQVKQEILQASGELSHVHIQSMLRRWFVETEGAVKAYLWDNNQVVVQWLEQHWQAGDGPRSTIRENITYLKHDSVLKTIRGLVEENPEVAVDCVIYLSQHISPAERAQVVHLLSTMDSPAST

| Compound | IC50 |
| --- | --- |
| C[C@H](NC(=O)CO)c1ccc(C2CN(c3ccc(OCC4CC4)cc3)C2)cc1 [Example 3.82] | 1620 nM |
| CCC(=O)NC(C)Cc1ccc(C2CN(c3ccc4c(c3)OCCO4)C2)cc1 (centres unmarked) [Example 3.83] | 3130 nM |
| CC(Cc1ccc(C2CN(c3ccc4c(c3)OCCO4)C2)cc1)NC(=O)C(F)F (centres unmarked) [Example 3.84] | 3600 nM |
| C[C@H](NC(=O)C(F)F)c1ccc(C2CN(c3ccc(OCC4CC4)cc3)C2)cc1 [Example 3.85] | 360 nM |
| C[C@H](NC(=O)c1cncs1)c1ccc(C2CN(c3ccc(OCC4CC4)cc3)C2)cc1 [Example 3.86] | 450 nM |
| Cc1nocc1C(=O)N[C@@H](C)c1ccc(C2CN(c3ccc(OCC4CC4)cc3)C2)cc1 [Example 3.87] | 470 nM |
| C[C@H](NC(=O)C(C)(F)F)c1ccc(C2CN(c3ccc(OCC4CC4)cc3)C2)cc1 [Example 3.88] | 530 nM |
| C[C@H](NC(=O)CF)c1ccc(C2CN(c3ccc(OCC4CC4)cc3)C2)cc1 [Example 3.89] | 550 nM |
| C[C@H](NC(=O)c1cnn(C)c1)c1ccc(C2CN(c3ccc(OCC4CC4)cc3)C2)cc1 [Example 3.90] | 620 nM |
| C=CCC(=O)N[C@@H](C)c1ccc(C2CN(c3ccc(OCC4CC4)cc3)C2)cc1 [Example 3.91] | 630 nM |
| CC(=O)N[C@@H](C)c1ccc(C2CN(c3ccnc(N(C)CC(F)F)n3)C2)cc1 [Example 4.1, (S)—N-(1-(4-(1-(2-((2,2-difluoroethyl)(methyl)amino)pyrimidin-4-yl)azetidin-3-yl)phenyl)ethyl)acetamide] | 1820 nM |
| CC(=O)N[C@@H](C)c1ccc(C2CN(c3nc(N(C)CC(F)F)ncc3F)C2)cc1 [Example 4.2] | 1010 nM |
| CC(=O)N[C@@H](C)c1ccc(C2CN(c3nc(N(C)C)ncc3F)C2)cc1 [Example 4.3] | 1510 nM |
| CC(=O)N[C@@H](C)c1ccc(C2CN(c3ccnc(OCC4CC4(F)F)c3F)C2)cc1 (stereo partly drawn) [Example 5.1, N-((1S)-1-(4-(1-(2-((2,2-difluorocyclopropyl)methoxy)-3-fluoropyridin-4-yl)azetidin-3-yl)phenyl)ethyl)acetamide] | 1450 nM |
| CC(=O)N[C@@H](C)c1ccc(C2CN(c3ccnc(OCC(F)F)c3)C2)cc1 [Example 5.2] | 1220 nM |
| CC(=O)N[C@@H](C)c1ccc(C2CN(c3ccnc(OCC4CC4)c3)C2)cc1 [Example 5.3] | 1590 nM |
| CCCOc1ncnc(N2CC(c3ccc([C@H](C)NC(C)=O)cc3)C2)c1Cl [Example 5.4] | 680 nM |
| CC(=O)N[C@@H](C)c1ccc(C2CN(c3ncnc(OCC4CC4)c3Cl)C2)cc1 [Example 5.5] | 380 nM |
| CC(=O)N[C@@H](C)c1ccc(C2CN(c3ncnc(OCC4CC4(F)F)c3F)C2)cc1 (some centres unmarked) [Example 5.6] | 540 nM |
| CC(=O)N[C@@H](C)c1ccc(C2CN(c3ncnc(OCC4CC4)c3F)C2)cc1 [Example 5.7] | 400 nM |
